How the values were obtained:
CDK1/CycB = target: T1, CDK1/CycB (Homo sapiens, UniProt P06493); assay: CDK1/CycB kinase assay; type: biochemical; conditions: 0.5 μM ATP
T1 construct: GST; purchased ProQinase GmbH, Freiburg; host or cells: baculovirus-infected insect cells (Sf9)
Description: Recombinant CDK1- and CycB-GST fusion proteins, purified from baculovirus-infected insect cells (Sf9), were purchased from ProQinase GmbH, Freiburg. The histone IIIS used as kinase substrate can be purchased from Sigma.
CDK1/CycB (5 ng/μL) was incubated in the presence of various concentrations of test substances (0 μM, and within the range 0.01-100 μM) in 40 μL of assay buffer [50 mM Tris/HCl pH 8.0, 10 mM MgCl2, 0.1 mM Na ortho-vanadate, 1.0 mM dithiothreitol, 0.025% PEG 20000, 0.5 μM ATP, 10 μM histone IIIS, 0.2 μCi/measurement point ^33P-gamma ATP, 0.05% NP40, 1.25% dimethyl sulphoxide] at 22° C. for 10 min. The reaction was stopped by adding EDTA solution (250 mM, pH 8.0, 15 μl/measurement point). 15 μl of each reaction mixture were loaded onto P30 filter strips (from Wallac), and non-incorporated ^33P-ATP was removed by washing the filter strips three times in 0.5% strength phosphoric acid for 10 min each time. After the filter strips had been dried at 70° C. for 1 hour, the filter strips were covered with scintillator strips (MeltiLex™ A, from Wallac) and baked at 90° C. for 1 hour. The amount of incorporated ^33P (substrate phosphorylation) was determined by scintillation measurement in a gamma radiation counter (Wallac).
(§1) The measured data were normalized to 0% inhibition (enzyme reaction without inhibitor) and 100% inhibition (all assay components except enzyme). The IC50 values were determined by means of a 4-parameter fit using the company's own software.

CDK2/CycE = target: T2, CDK2/CycE (Homo sapiens, UniProt P24941); assay: CDK2/CycE kinase assay; type: biochemical; conditions: 0.5 μM ATP
T2 construct: GST; purchased ProQinase GmbH, Freiburg; host or cells: baculovirus-infected insect cells (Sf9)
Description: Recombinant CDK2- and CycE-GST fusion proteins, purified from baculovirus-infected insect cells (Sf9), were purchased from ProQinase GmbH, Freiburg. The histone IIIS used as kinase substrate was purchased from Sigma. CDK2/CycE (1.25 ng/μL) was incubated in the presence of various concentrations of test substances (0 μM, and within the range 0.01-100 μM) in 40 μL of assay buffer [50 mM Tris/HCl pH 8.0, 10 mM MgCl2, 0.1 mM Na ortho-vanadate, 1.0 mM dithiothreitol, 0.5 μM ATP, 0.2% PEG20000, 10 μM histone IIIS, 0.2 μCi/measurement point ^33P-gamma ATP, 0.05% NP40, 1.25% dimethyl sulphoxide] at 22° C. for 10 min. The reaction was stopped by adding EDTA solution (250 mM, pH 8.0, 15 μl/measurement point).
15 μl of each reaction mixture were loaded onto P30 filter strips (from Wallac), and non-incorporated ^33P-ATP was removed by washing the filter strips three times in 0.5% strength phosphoric acid for 10 min each time.
(§2) After the filter strips had been dried at 70° C. for 1 hour, the filter strips were covered with scintillator strips (MeltiLex™ A, from Wallac) and baked at 90° C. for 1 hour. The amount of incorporated ^33P (substrate phosphorylation) was determined by scintillation measurement in a gamma radiation counter (Wallac).
as §1

KDR (VEGFR2) = target: T3, KDR (VEGFR2) (Homo sapiens, UniProt P35968); assay: KDR kinase assay; type: biochemical; conditions: 8 μM ATP
T3 construct: GST; purchased ProQinase GmbH, Freiburg; host or cells: baculovirus-infected insect cells (Sf9)
T3 sequence (P35968 807-1356 limits assumed): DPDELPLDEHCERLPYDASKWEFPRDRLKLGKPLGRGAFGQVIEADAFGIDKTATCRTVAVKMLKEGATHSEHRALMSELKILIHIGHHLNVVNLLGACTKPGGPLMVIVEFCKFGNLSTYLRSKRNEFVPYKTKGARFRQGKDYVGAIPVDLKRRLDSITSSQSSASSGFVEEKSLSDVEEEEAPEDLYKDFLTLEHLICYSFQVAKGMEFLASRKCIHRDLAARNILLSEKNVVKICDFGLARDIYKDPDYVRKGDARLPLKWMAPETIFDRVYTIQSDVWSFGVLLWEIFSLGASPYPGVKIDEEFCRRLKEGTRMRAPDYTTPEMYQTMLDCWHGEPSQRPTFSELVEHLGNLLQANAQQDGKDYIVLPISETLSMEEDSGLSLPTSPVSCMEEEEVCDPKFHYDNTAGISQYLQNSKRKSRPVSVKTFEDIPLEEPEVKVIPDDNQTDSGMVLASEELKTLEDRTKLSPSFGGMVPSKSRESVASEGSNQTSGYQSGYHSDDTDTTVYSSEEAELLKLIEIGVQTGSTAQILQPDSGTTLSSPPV
Description: Recombinant KDR kinase-GST fusion proteins purified from baculovirus-infected insect cells (Sf9), were purchased from ProQinase GmbH, Freiburg. Poly(Glu4Tyr)n, which was used as kinase substrate, was purchased from Sigma.
KDR kinase was incubated in the presence of various concentrations of test substances (0 μM, and within the range 0.01-100 μM) in 40 μL of assay buffer [40 mM Tris/HCl pH 7.5, 10 mM MgCl2, 1 mM MnCl2, 1.0 mM dithiothreitol, 8 μM ATP, 0.025% PEG20000, 24 ng/μL poly(Glu4Tyr)n, 0.2 μCi/measurement point ^33P-gamma ATP, 1.25% dimethyl sulphoxide] at 22° C. for 10 min. The reaction was stopped by adding EDTA solution (250 mM, pH 7.5, 15 μl/measurement point). 15 μl of each reaction mixture were loaded onto P30 filter strips (from Wallac), and non-incorporated ^33P-ATP was removed by washing the filter strips three times in 0.5% strength phosphoric acid for 10 min each time.
as §2, §1

[1] = test system: human MCF7 breast tumour cells; assay: MCF7 proliferation assay; type: cell-based; conditions: MCF7, 96 h, 4 days incubation, crystal violet staining
Description: Cultivated human MCF7 breast tumour cells (ATCC HTB-22) were plated out in a density of 5000 cells/measurement point in 200 μl of growth medium (RPMI1640, 10% foetal calf serum, 2 mU/mL insulin, 0.1 nM oestradiol) in a 96-well multititre plate. After 24 hours, the cells from a plate (zero plate) were stained with crystal violet (see below), while the medium in the other plates was replaced by fresh culture medium (200 μl) to which the test substances had been added in various concentrations (0 μM, and in the range 0.01-30 μM; the final concentration of the solvent dimethyl sulphoxide was 0.5%). The cells were incubated in the presence of the test substances for 4 days. The cell proliferation was determined by staining the cells with crystal violet: the cells were fixed by adding 20 μl/measurement point of an 11% strength glutaraldehyde solution at room temperature for 15 min. After the fixed cells had been washed three times with water, the plates were dried at room temperature. The cells were stained by adding 100 μl/measurement point of a 0.1% strength crystal violet solution (pH adjusted to pH 3 by adding acetic acid). After the stained cells had been washed three times with water, the plates were dried at room temperature. The dye was dissolved by adding 100 μl/measurement point of a 10% strength acetic acid solution, and the extinction was determined by photometry at a wavelength of 595 nm. The percentage change in cell growth was calculated by normalizing the measurements to the extinctions of the zero point plate (=0%) and the extinction of the untreated (0 μM) cells (=100%). The IC50 values were determined by means of a 4-parameter fit using the company's own software.

T1 sequence (P06493 whole entry): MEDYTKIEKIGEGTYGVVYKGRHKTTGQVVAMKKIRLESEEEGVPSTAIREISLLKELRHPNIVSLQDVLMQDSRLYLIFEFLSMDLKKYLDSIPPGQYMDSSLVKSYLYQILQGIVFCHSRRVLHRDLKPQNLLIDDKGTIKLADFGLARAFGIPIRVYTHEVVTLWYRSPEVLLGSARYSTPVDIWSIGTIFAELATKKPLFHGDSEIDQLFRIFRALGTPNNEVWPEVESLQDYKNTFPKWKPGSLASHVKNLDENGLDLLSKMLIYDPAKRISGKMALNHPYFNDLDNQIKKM
T1 sequence (P14635 whole entry partner): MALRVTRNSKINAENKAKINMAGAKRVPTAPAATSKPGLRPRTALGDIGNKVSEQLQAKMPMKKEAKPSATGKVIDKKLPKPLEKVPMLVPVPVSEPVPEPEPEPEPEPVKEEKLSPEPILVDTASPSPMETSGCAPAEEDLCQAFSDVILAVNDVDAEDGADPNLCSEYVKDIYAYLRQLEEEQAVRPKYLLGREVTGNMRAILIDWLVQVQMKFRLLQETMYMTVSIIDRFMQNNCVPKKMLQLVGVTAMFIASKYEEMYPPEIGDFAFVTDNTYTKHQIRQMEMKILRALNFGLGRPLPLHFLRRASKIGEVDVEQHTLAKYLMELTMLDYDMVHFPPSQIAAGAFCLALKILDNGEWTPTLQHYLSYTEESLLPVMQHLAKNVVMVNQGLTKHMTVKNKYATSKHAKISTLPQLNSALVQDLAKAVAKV

IC50 (CDK1/CycB): 17 nM | IC50 (CDK2/CycE): 12 nM | IC50 (KDR (VEGFR2)): 96 nM | IC50 [1]: 310 nM
SMILES: C[C@@H](O)[C@@H](C)Oc1nc(Nc2ccc(C(=O)N=S(C)(C)=O)cc2)ncc1Br [Example 20, N-{4-[(5-Bromo-4-{[(1R,2R)-2-hydroxy-1-methylpropyl]oxy}pyrimidin-2-yl)amino]benzoyl}-S,S-dimethylsulphoximide]
